Measured values published in patent publication US20260284202A1, “CONJUGATES OF SAPONIN AND ANTISENSE OLIGONUCLEOTIDES FOR USE IN THE TREATMENT OF NEURODEGENERATIVE DISEASES” (priority 2023, published 2026).

Assays:
Format in all cases: cell-based, murine
Malat1 mRNA = Malat1 mRNA knockdown in Neuro-2a cells (qRT-PCR); settings: for Malat1 RNA still measurable: 20.000 nM Malat1 ASO alone or co-administered with 1 μM of the named molecule; for co-administration enhancement effect on Malat1 ASO efficacy: named molecule at 1 μM with titrated Malat1 ASO; for enhancing effect on Malat1 mRNA reduction in co-administration: named molecule titrated with fixed 200 nM Malat1 ASO
Method: Neuro-2a (murine neuroblastoma cells) were cultured in DMEM (PAN-Biotech GmbH) supplemented with 10% fetal bovine serum (FBS, PAN-Biotech GmbH) and Pen/Strep (PAN-Biotech GmbH). For experiments, Neuro-2a cells were harvested, resuspended at 60.000 cells/mL and seeded at a density of 36.000 cells/well or 6.000 cells/well for the 24- or 96-well plates (Greiner BioOne). Cells were incubated overnight at 37° C. Before the start of treatment, 210 µL or 35 μL medium was added per well, respectively, followed by the conjugates from a 10× concentrated stock solution in DPBS (PAN-Biotech GmbH). Plates were incubated for 72 hr at 37° C. before the cells of the 24-well plates were harvested for gene expression analysis and the cell viability was assessed on the 96-well plates.
(§1) Total RNA from cells was isolated using TRIzol™ Reagent (Thermo Scientific) according to the manufacturer's instruction. Conversion into cDNA was performed using iScript™ cDNA Synthesis Kit (BioRad) using standard protocols. Gene expression levels of the gene of interest (GOI) and levels of specific housekeeping genes were determined using quantitative real-time PCR assays (qRT-PCR) using iTaq™ Universal SYBR® Green Supermix (BioRad) and the Light Cycler 480 II (Roche Diagnostics) with specific DNA primers, listed in Table A3. Each analysis reaction was performed in triplicate. Analysis was done by the ΔCt method to determine GOI expression relative to 2 specific housekeeping control mRNAs. Results are expressed as % relative GOI expression levels after normalization to DPBS treated control cells.
(§2) Neuro-2a cells (murine neuroblastoma cell line) were cultured in DMEM (PAN-Biotech GmbH) supplemented with 10% fetal bovine serum (FBS, PAN-Biotech GmbH) and Pen/Strep (PAN-Biotech GmbH). For experiments, Neuro-2a cells were harvested, resuspended at 60.000 cells/mL and seeded at a density of 36.000 cells/well or 6.000 cells/well for the 24 or 96-well plates (Greiner BioOne). Cells were incubated overnight at 37° C. Before the start of treatment, either 210 μL or 35 μL media was added per well resp., followed by the compounds from a 10× concentrated stock solution in DPBS (PAN-Biotech GmbH). In the control wells, or when only one compound was applied in treatment, additional DPBS was added so that the final volume per well was 900 µL or 150 μL for the 24 or 96-well plates (wp), respectively. Plates were incubated for 72 hr at 37° C. before the cells of the 24 wp were harvested for gene expression analysis or exon skip/aberrant transcript analysis and the cell viability was assessed on the 96 wp.
as §1, with “LightCycler” for “Light Cycler”, “A6.” for “A3.”

Sod1 RNA transcripts = assay: Sod1 aberrant transcript / exon skip in Neuro-2a cells (PCR gel analysis)
Method: Neuro-2a (murine neuroblastoma cells) were cultured in DMEM (PAN-Biotech GmbH) supplemented with 10% fetal bovine serum (FBS, PAN-Biotech GmbH) and Pen/Strep (PAN-Biotech GmbH). For experiments Neuro-2a cells were harvested, resuspended at 70.000 cells/mL and seeded at a density of 42.000 cells/well or 7.000 cells/well for the 24 or 96-well plates (Greiner BioOne). Cells were incubated overnight at 37° C. Before the start of treatment 120 μL or 20 μL media was added per well resp., followed by both saponin and/or PMO from a 10× concentrated stock solution in DPBS (PAN-Biotech GmbH). […] Plates were incubated for 72 hr at 37° C. before the cells of the 24 wp were harvested for gene expression analysis and the cell viability was assessed on the 96 wp.
Total RNA from cells was isolated using TRIzol™ Reagent (Thermo Scientific) according to the manufacturer's instruction. […] The gene expression was determined on 50 ng cDNA using the SapphireAmp Fast PCR Master Mix (Takara) with specific DNA primers, listed in Table A4. The PCR product was separated on a 2% agarose gel and fragments were analysed on the ChemiDoc XRS+ (BioRad) using Image Lab software (BioRad). For quantification of the % exon skip, the signal intensity of the aberrant transcript(s) (Mm Sod1 448 bp and 378 bp was divided over the total signal intensity of the skipped fragment(s)+full length fragment (Mm Sod1 545 bp)×100. […]

Sod1 transcript = assay: Remaining full length Sod1 transcript in Neuro-2a cells (qRT-PCR); settings: PMO without saponin component
Method: as §2, with “In the control wells, or when only one compound was applied in treatment, additional DPBS was added so that the final volume per well was 900 µL or 150 μL for the 24 or 96-well plates (wp), respectively.” left out
Total RNA from cells was isolated using TRIzol™ Reagent (Thermo Scientific) according to the manufacturer's instruction. […] Gene expression levels of the gene of interest (GOI) and levels of specific housekeeping genes were determined using quantitative real-time PCR assays (qRT-PCR) using iTaq™ Universal SYBR® Green Supermix (BioRad) and the LightCycler 480 II (Roche Diagnostics) with specific DNA primers, listed in Table A6. […] Results are expressed as % relative GOI expression levels after normalization to DPBS treated control cells.

Row | Molecule | Malat1 RNA still measurable (Malat1 mRNA; 4320 min) | co-administration enhancement effect on Malat1 ASO efficacy (Malat1 mRNA) | enhancing effect on Malat1 mRNA reduction in co-administration (Malat1 mRNA) | other results
1 | C[C@@H]1CC[C@@]2(OC1)O[C@H]1[C@@H](O)[C@H]3[C@@H]4CC[C@H]5C[C@@H](O[C@@H]6O[C@H](CO)[C@H](O[C@@H]7O[C@H](CO)[C@@H](O)[C@H](O[C@@H]8OC[C@@H](O)[C@H](O)[C@H]8O)[C@H]7O[C@@H]7O[C@H](CO)[C@H](O)[C@H](O[C@@H]8O[C@H](CO)[C@@H](O)[C@H](O)[C@H]8O)[C@H]7O)[C@H](O)[C@H]6O)[C@H](O)C[C@]5(C)[C@H]4CC[C@]3(C)[C@H]1[C@@H]2C [digitonin] | 10-15% | not observed |  | reduction in Malat1 mRNA (Malat1 mRNA; 10.000 nM of named molecule with 200 nM Malat1 ASO, 4320 min): approximately 70%
2 | CC1(C)[C@@H](O[C@H]2O[C@H](C(=O)O)[C@@H](O)[C@H](O)[C@H]2O[C@@H]2O[C@H](C(=O)O)[C@@H](O)[C@H](O)[C@H]2O)CC[C@]2(C)[C@H]3C(=O)C=C4[C@@H]5C[C@@](C)(C(=O)O)CC[C@]5(C)CC[C@@]4(C)[C@]3(C)CC[C@@H]12 [glycyrrhizin] |  |  | no enhancing effect | 
3 | C[C@H]1CC[C@]2(NC1)O[C@H]1C[C@H]3[C@@H]4CC[C@H]5C[C@@H](O[C@@H]6O[C@H](CO)[C@H](O[C@@H]7O[C@H](CO)[C@@H](O)[C@H](O[C@@H]8OC[C@@H](O)[C@H](O)[C@H]8O)[C@H]7O[C@@H]7O[C@H](CO)[C@@H](O)[C@H](O)[C@H]7O)[C@H](O)[C@H]6O)CC[C@]5(C)[C@H]4CC[C@]3(C)[C@H]1[C@@H]2C [tomatine] | 10-15% | not observed | no enhancing effect | 
4 | CC(=O)OC1C(C)OC(OC2C(C)OC(OC(=O)[C@]34CCC(C)(C)CC3C3=CCC5[C@@]6(C)CC[C@H](OC7OC(C(=O)O)C(O)C(OC8OCC(O)C(O)C8O)C7OC7OC(CO)C(O)C(O)C7O)[C@@](C)(/C=N/NC(=O)CCCCCN7C(=O)CC(SCCO)C7=O)C6CC[C@@]5(C)[C@]3(C)C[C@H]4O)C(OC3OC(C)C(OC4OCC(O)C(OC5OC(CO)C(O)C(O)C5O)C4O)C(O)C3O)C2O)C(O)C1OC1OCC(O)C(O)C1O (stereo partly drawn) [SO1861-AH-Block] |  |  | efficacious | concentration above which complete loss of Malat1 mRNA expression is achieved (Malat1 mRNA; titrated with fixed 200 nM Malat1 ASO): above 3200 nM
5 | C[C@H]1O[C@@H](O[C@H]2[C@@H](O)C[C@H](O[C@H]3[C@@H](O)C[C@H](O[C@H]4CC[C@@]5(C)[C@H](CC[C@@H]6[C@@H]5C[C@@H](O)[C@]5(C)[C@@H](C7=CC(=O)OC7)CC[C@]65O)C4)O[C@@H]3C)O[C@@H]2C)C[C@H](O)[C@@H]1O [digoxin] | 10-15% | not observed | no enhancing effect | 
6 | SOD1 PMO: PMO targeting murine Sod1, SEQ ID: 20, GCCAGCCTAGGACCTACCTTGTGTA (all phosphorodiamidate morpholino (PMO)) |  |  |  | induction of aberrant Sod1 transcripts (Sod1 RNA transcripts; PMO alone, up to 50 μM PMO (FIG. 4)): did not induce any aberrant Sod1 transcripts; activity (aberrant transcript induction, nonsense mediated mRNA decay) (Sod1 RNA transcripts; without saponin component (FIG. 18C, 18D)): did not show any activity at any of the concentrations tested; reduction of full length Sod1 transcript (Sod1 transcript): not able to reduce transcript
